Experimental data taken from patent US9688668B2, “Long chain base sphingosine kinase inhibitors” (UNIVERSITY OF VIRGINIA PATENT FOUNDATION, priority 2012, dated 2017).

Biological target: recombinant SphK2 (Mus musculus, UniProt Q9JIA7)
Experiment: SphK2 scintillation proximity kinase assay
Format: biochemical
Conditions: Estimated Ki values at recombinant SphK2; read-out: SphK2 (estimated Ki range)

Chain of recombinant SphK2 (Q9JIA7 whole entry, looked up): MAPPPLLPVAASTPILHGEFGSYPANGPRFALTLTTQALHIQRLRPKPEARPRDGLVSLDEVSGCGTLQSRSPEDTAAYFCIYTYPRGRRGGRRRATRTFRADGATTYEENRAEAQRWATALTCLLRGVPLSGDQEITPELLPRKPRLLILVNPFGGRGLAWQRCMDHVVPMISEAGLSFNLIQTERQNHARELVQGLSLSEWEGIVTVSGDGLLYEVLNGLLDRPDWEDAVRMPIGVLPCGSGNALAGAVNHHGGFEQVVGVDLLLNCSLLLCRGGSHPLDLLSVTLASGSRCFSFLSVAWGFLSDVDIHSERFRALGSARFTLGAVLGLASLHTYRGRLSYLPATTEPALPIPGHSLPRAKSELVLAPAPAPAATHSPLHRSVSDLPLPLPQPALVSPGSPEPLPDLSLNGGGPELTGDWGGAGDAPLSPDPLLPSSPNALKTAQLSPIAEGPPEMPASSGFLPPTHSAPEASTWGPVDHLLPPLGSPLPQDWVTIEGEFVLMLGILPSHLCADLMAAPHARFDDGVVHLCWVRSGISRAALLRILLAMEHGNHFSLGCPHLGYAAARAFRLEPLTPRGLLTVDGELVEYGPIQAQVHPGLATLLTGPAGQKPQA

In the case of “(S)-2-((3-(3-nonylphenyl)-1,2,4- oxadiazol-5-yl)methyl)pyrrolidine-1- carboximidamide [Compound 75]”, the Ki is reported as > 10 µM.

System: not given
Experiment: not given
Conditions: patients, 1-yr trial; cited from earlier work

For `CCCCCCCCc1ccc(CCC(N)(CO)CO)cc1` [fingolimod, 2-amino-2-[2-(4-octylphenyl)ethyl]propane 1,3-diol], the “hypertension (blood pressure rise)” value is given as 2-3 mmHg.

Biological target: recombinant SphK1 (Homo sapiens (Human), UniProt Q9NYA1)
Experiment: SphK1 scintillation proximity kinase assay
Conditions: not given

Chain of recombinant SphK1 (Q9NYA1 whole entry): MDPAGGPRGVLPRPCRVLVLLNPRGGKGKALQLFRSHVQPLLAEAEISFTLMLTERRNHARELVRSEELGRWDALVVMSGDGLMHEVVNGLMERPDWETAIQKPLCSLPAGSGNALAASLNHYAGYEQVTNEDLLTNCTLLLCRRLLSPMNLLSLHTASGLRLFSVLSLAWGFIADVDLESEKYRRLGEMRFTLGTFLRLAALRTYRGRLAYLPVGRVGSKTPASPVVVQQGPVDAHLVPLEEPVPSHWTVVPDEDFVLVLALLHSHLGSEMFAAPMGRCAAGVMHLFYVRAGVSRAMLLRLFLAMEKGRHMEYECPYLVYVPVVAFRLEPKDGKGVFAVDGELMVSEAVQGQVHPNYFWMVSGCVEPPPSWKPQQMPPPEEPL

`CCCCCCCCCCCCCCCCC(=N)N` [Compound 3, heptadecanimidamide] and `CCCCCCCCCCCCc1ccc(-c2noc(C3(C(=N)N)CC3)n2)cc1` [Compound 11, 1-(3-(4-dodecylphenyl)-1,2,4-oxadiazol-5-yl) cyclopropanecarboximidamide] fall in the same range of Ki: 1 to 10 µM for the first, 1 to 10 µM for the second.

Compared with `CCCCCCCCCCCc1cc(-c2noc(C3(C(=N)N)CC3)n2)ccc1OC` [Compound 14, 1-(3-(4-methoxy-3-undecylphenyl)-1,2,4-oxadiazol-5-yl)cyclopropanecarboximidamide], `CCCCCCCCCCCCc1ccc(-c2noc([C@@H]3CCCN3C(=N)N)n2)cc1` [Compound 55, (S)-2-(3-(4-dodecylphenyl)-1,2,4-oxadiazol-5-yl)pyrrolidine-1-carboximidamide] is higher in Ki: < 1 µM for the first, > 10 µM for the second. The first binds more tightly here.

`CCCCCCCCc1ccc([C@H]2CC[C@H](NC(=N)N)CC2)cc1` [Compound 34, 1-((1R,4R)-4-(4-octylphenyl)-cyclohexyl)guanidine] and `CCCCCCCCc1ccc(-c2noc(CNC(=N)N)n2)cc1` [Compound 46, 1-((3-(4-octylphenyl)-1,2,4-oxadiazol-5-yl)methyl)guanidine] fall in the same range of Ki: 1 to 10 µM for the first, 1 to 10 µM for the second.

`CCCCCCCCc1ccc(-c2noc([C@H](C)NC(=N)N)n2)cc1` [Compound 47, (S)-1-(1-(3-(4-octylphenyl)-1,2,4-oxadiazol-5-yl)ethyl)guanidine] and `CCCCCCCCc1ccc(-c2noc([C@@H](NC(=N)N)C(C)C)n2)cc1` [Compound 48, (S)-1-(2-methyl-1-(3-(4-octylphenyl)-1,2,4-oxadiazol-5-yl)propyl)guanidine] fall in the same range of Ki: 1 to 10 µM for the first, 1 to 10 µM for the second.

`CCCCCCCCCCc1ccc(-c2noc([C@@H]3CCCN3C(=N)N)n2)cc1` [Compound 54, (S)-2-(3-(4-decylphenyl)-1,2,4-oxadiazol-5-yl)pyrrolidine-1-carboximidamide] and `CCCCCCCCCCc1ccc(-c2noc([C@@H]3CCN3C(=N)N)n2)cc1` [Compound 63, (S)-2-(3-(4-decylphenyl)-1,2,4-oxadiazol-5-yl)azetidine-1-carboximidamide] fall in the same range of Ki: 1 to 10 µM for the first, 1 to 10 µM for the second.

First: CCCCCCc1ccc(-c2noc([C@@H]3CCCN3C(=N)N)n2)cc1 [Compound 56, (S)-2-(3-(4-hexylphenyl)-1,2,4-oxadiazol-5-yl)pyrrolidine-1-carboximidamide]
Second: CCCCCCCCc1ccc(-c2noc(C3CN(C(=N)N)C3)n2)cc1 [Compound 66, 3-(3-(4-octylphenyl)-1,2,4-oxadiazol-5-yl)azetidine-1-carboximidamide]
The Ki of the first is higher: > 10 µM for the first, 1 to 10 µM for the second.

For `N=C(N)N1CC[C@H]1c1nc(-c2ccc(-c3ccccc3)cc2)no1` [Compound 60, (S)-2-(3-([1,1′-biphenyl]-4-yl)-1,2,4-oxadiazol-5-yl)azetidine-1-carboximidamide], the Ki was > 10 µM.

Same assay, conditions: read-out: SphK1 (estimated Ki range); Estimated Ki values at recombinant SphK1

`CCCCCCCCCCCCc1ccc(C(=O)NNC(=N)N)cc1` [Compound 1, 2-(4-dodecylbenzoyl)hydrazine carboximidamide] and `CCCCCCCCCCCCC/C=C/[C@@H](O)[C@@H](N)C(=N)N` [Compound 2, (2S,3R,E)-2-amino-3-hydroxyoctadec-4-enimidamide] cannot be ordered by Ki: > 10 µM for the first, > 10 µM for the second.

`CCCCCCCCCCCCC/C=C/CC(=N)N` [Compound 4, (E)-heptadec-3-enimidamide] and `CCCCCCCCCCc1ccc(CCCC(=N)N)cc1` [Compound 5, 4-(4-decylphenyl)butanimidamide] cannot be ordered by Ki: > 10 µM for the first, > 10 µM for the second.

`CCCCCCCCCCc1ccc(/C=C/CC(=N)N)cc1` [Compound 6, (E)-4-(4-decylphenyl)but-3-enimidamide] and `CCCCCCCCc1ccc(CC[C@@H](N)C(=N)N)cc1` [Compound 8, (R)-2-amino-4-(4-octylphenyl)butanimidamide] cannot be ordered by Ki: > 10 µM for the first, > 10 µM for the second.

`CCCCCCCCCCCCc1ccc(-c2noc(CC(=N)N)n2)cc1` [Compound 12, 2-(3-(4-dodecylphenyl)-1,2,4-oxadiazol-5-yl)acetimidamide] and `CCCCCCCCCCCCc1ccc(-c2coc(C(C)C(=N)N)n2)cc1` (stereo not shown) [Compound 18, 2-(4-(4-dodecylphenyl)oxazol-2-yl)propanimidamide] cannot be ordered by Ki: > 10 µM for the first, > 10 µM for the second.

Compared with `CCCCCCCCCCCCc1ccc(-c2coc(CC(=N)N)n2)cc1` [Compound 19, 2-(4-(4-dodecylphenyl)oxazol-2-yl)acetimidamide], `CCCCCCCCCCCc1cc(-c2nnc(C3(C(=N)N)CC3)o2)c(OC)cc1OC` [Compound 22, 1-(5-(2,4-dimethoxy-5-undecylphenyl)-1,3,4-oxadiazol-2-yl)cyclopropanecarboximidamide] is lower in Ki: > 10 µM for the first, < 1 µM for the second. The second binds more tightly here.

`CCCCCCCCCCCc1ccc(OC)c(-c2nnc(C3(C(=N)N)CC3)o2)c1` [Compound 24, 1-(5-(2-methoxy-5-undecylphenyl)-1,3,4-oxadiazol-2-yl)cyclopropanecarboximidamide] and `CCCCCCCCCCCc1cc(-c2nnc(C3(C(=N)N)CC3)o2)ccc1OC` [Compound 27, 1-(5-(4-methoxy-3-undecylphenyl)-1,3,4-oxadiazol-2-yl)cyclopropanecarboximidamide] cannot be ordered by Ki: < 1 µM for the first, < 1 µM for the second.

`CCCCCCCCc1ccc(C(=O)NCCOC(=N)N)cc1` [Compound 33, 2-(4-octylbenzamido)ethyl carbamimidate] and `CCCCCCCCc1ccc(CNC(=O)C2(NC(=N)N)CC2)cc1` [Compound 35, 1-guanidino-N-(4-octylbenzyl) cyclopropanecarboxamide] cannot be ordered by Ki: > 10 µM for the first, > 10 µM for the second.

`CCCCCCCCCCCCc1ccc(NC(=O)C2(NC(=N)N)CC2)cc1` [Compound 36, N-(4-dodecylphenyl)-1-guanidinocyclopropane-carboxamide] and `N=C(N)N1CCC[C@H]1c1nc(-c2ccc(I)cc2)no1` [Compound 37, (S)-2-(3-(4-iodophenyl)-1,2,4-oxadiazol-5-yl)pyrrolidine-1-carboximidamide] cannot be ordered by Ki: > 10 µM for the first, > 10 µM for the second.

`N=C(N)N1CCC[C@H]1c1nc(-c2ccc(C#CC3CCCC3)cc2)no1` [Compound 38, (S)-2-(3-(4-(cyclopentylethynyl)phenyl)-1,2,4-oxadiazol-5-yl)pyrrolidine-1-carboximidamide] and `CCCCCCCCc1noc([C@@H]2CCCN2C(=N)N)n1` [Compound 39, (S)-2-(3-octyl-1,2,4-oxadiazol-5-yl)pyrrolidine-1-carboximidamide] cannot be ordered by Ki: > 10 µM for the first, > 10 µM for the second.

`CCCCCCCCCCCCc1noc([C@@H]2CCCN2C(=N)N)n1` [Compound 40, (S)-2-(3-dodecyl-1,2,4-oxadiazol-5-yl)pyrrolidine-1-carboximidamide] and `CCCCCCCCCCCCCCCCc1noc([C@@H]2CCCN2C(=N)N)n1` [Compound 41, (S)-2-(3-hexadecyl-1,2,4-oxadiazol-5-yl)pyrrolidine-1-carboximidamide] cannot be ordered by Ki: > 10 µM for the first, > 10 µM for the second.

`CCCCCCCCc1ccc(-c2noc(C3(NC(=N)N)CC3)n2)cc1` [Compound 42, 1-(1-(3-(4-octylphenyl)-1,2,4-oxadiazol-5-yl)cyclopropyl)guanidine] and `CCCCCCCCCCCc1ccc(-c2noc(C3(NC(=N)N)CC3)n2)cc1` [Compound 43, 1-(1-(3-(4-undecylphenyl)-1,2,4-oxadiazol-5-yl)cyclopropyl)guanidine] cannot be ordered by Ki: > 10 µM for the first, > 10 µM for the second.

`CCCCCCCCCCCCc1ccc(-c2noc(C3(NC(=N)N)CC3)n2)cc1` [Compound 44, 1-(1-(3-(4-dodecylphenyl)-1,2,4-oxadiazol-5-yl)cyclopropyl)guanidine] and `CCCCCCCCc1ccc(-c2noc(CN(C)C(=N)N)n2)cc1` [Compound 45, 1-methyl-1-((3-(4-octylphenyl)-1,2,4-oxadiazol-5-yl)methyl)guanidine] cannot be ordered by Ki: > 10 µM for the first, > 10 µM for the second.

`CCCCCCCCCCCCCCc1ccc(-c2noc([C@@H]3CCCN3C(=N)N)n2)cc1` [Compound 57, (S)-2-(3-(4-tetradecylphenyl)-1,2,4-oxadiazol-5-yl)pyrrolidine-1-carboximidamide] and `CCCCCCCCc1cccc(-c2noc([C@@H]3CCCN3C(=N)N)n2)c1` [Compound 58, (S)-2-(3-(3-octylphenyl)-1,2,4-oxadiazol-5-yl)pyrrolidine-1-carboximidamide] cannot be ordered by Ki: > 10 µM for the first, > 10 µM for the second.

`CCCCCCCCc1ccc(-c2noc([C@@H]3CCN(C(=N)N)C3)n2)cc1` [Compound 59, (R)-3-(3-(4-octylphenyl)-1,2,4-oxadiazol-5-yl)pyrrolidine-1-carboximidamide] and `CCCCCCc1ccc(-c2noc([C@@H]3CCN3C(=N)N)n2)cc1` [Compound 61, (S)-2-(3-(4-hexylphenyl)-1,2,4-oxadiazol-5-yl)azetidine-1-carboximidamide] cannot be ordered by Ki: > 10 µM for the first, > 10 µM for the second.

`CCCCCCCCc1ccc(-c2noc([C@@H]3CCN3C(=N)NO)n2)cc1` [Compound 65, (S)-N-hydroxy-2-(3-(4-octylphenyl)-1,2,4-oxadiazol-5-yl)azetidine-1-carboximidamide] and `CCCCCCCCCCc1ccc(-c2noc(C3CN(C(=N)N)C3)n2)cc1` [Compound 67, 3-(3-(4-decylphenyl)-1,2,4-oxadiazol-5-yl)azetidine-1-carboximidamide] cannot be ordered by Ki: > 10 µM for the first, > 10 µM for the second.

`CCCCCCCCc1cccc(-c2noc(C[C@@H]3CCCN3C(=N)N)n2)c1` [Compound 74, (S)-2-((3-(3-octylphenyl)-1,2,4-oxadiazol-5-yl)methyl)pyrrolidine-1-carboximidamide] and `CCCCCCCCCCCCc1noc(C[C@@H]2CCCN2C(=N)N)n1` [Compound 76, (S)-2-((3-dodecyl-1,2,4-oxadiazol-5-yl)methyl)pyrrolidine-1-carboximidamide] cannot be ordered by Ki: > 10 µM for the first, > 10 µM for the second.

`N=C(N)N1CCC[C@H]1Cc1nc(-c2ccc(CS(=O)(=O)c3ccccc3)cc2)no1` [Compound 77, (S)-2-((3-(4-((phenylsulfonyl)methyl)phenyl)-1,2,4-oxadiazol-5-yl)methyl)pyrrolidine-1-carboximidamide] and “(S)-2-((3-(3-nonylphenyl)-1,2,4- oxadiazol-5-yl)methyl)pyrrolidine-1- carboximidamide [Compound 75]” cannot be ordered by Ki: > 10 µM for the first, > 10 µM for the second.
